{"source": "patent US8628762B2", "about": "“T-helper cell type 17 lineage-specific adjuvants, compositions and methods” (Icahn School of Medicine at Mount Sinai, priority 2008, dated 2014)", "molecules": {"B1": {"name": "IL-12: cytokine (eBioscience), 10 ng/mL (protein, UniProt P43431 23-215; P43432 23-335, looked up)", "Interleukin-12 subunit alpha": "RVIPVSGPARCLSQSRNLLKTTDDMVKTAREKLKHYSCTAEDIDHEDITRDQTSTLKTCLPLELHKNESCLATRETSSTTRGSCLPPQKTSLMMTLCLGSIYEDLKMYQTEFQAINAALQNHNHQQIILDKGMLVAIDELMQSLNHNGETLRQKPPVGEADPYRVKMKLCILLHAFSTRVVTINRVMGYLSSA", "Interleukin-12 subunit beta": "MWELEKDVYVVEVDWTPDAPGETVNLTCDTPEEDDITWTSDQRHGVIGSGKTLTITVKEFLDAGQYTCHKGGETLSHSHLLLHKKENGIWSTEILKNFKNKTFLKCEAPNYSGRFTCSWLVQRNMDLKFNIKSSSSSPDSRAVTCGMASLSAEKVTLDQRDYEKYSVSCQEDVTCPTAEETLPIELALEARQQNKYENYSTSFFIRDIIKPDPPKNLQMKPLKNSQVEVSWEYPDSWSTPHSYFSLKFFVRIQRKKEKMKETEEGCNQKGAFLVEKTSTEVQCKGGNVCVQAQDRYYNSSCSKWACVPCRVRS"}, "B2": {"name": "IL-23: cytokine (eBioscience), 10 ng/mL (protein, UniProt Q9EQ14 22-196; P43432 23-335, looked up)", "Interleukin-23 subunit alpha": "VPRSSSPDWAQCQQLSRNLCMLAWNAHAPAGHMNLLREEEDEETKNNVPRIQCEDGCDPQGLKDNSQFCLQRIRQGLAFYKHLLDSDIFKGEPALLPDSPMEQLHTSLLGLSQLLQPEDHPRETQQMPSLSSSQQWQRPLLRSKILRSLQAFLAIAARVFAHGAATLTEPLVPTA", "Interleukin-12 subunit beta": "B1 Interleukin-12 subunit beta"}}, "key": {"[1]": {"tested_on": "Naïve CD4 T-cells", "test": "qPCR of lineage genes in naïve CD4 T-cells cultured with DCCM", "format": "cell-based, C57BL/6J mice", "text": "(§1) Naïve CD4 T cells were isolated first by sorting with MACS® CD4^+ beads (Miltenyi Biotech, Auburn, Calif.) according to manufacturer's instructions and then by fluorescence activated cell sorting (FACS) using a MoFlo™, Vantage, or Influx™ cell sorter for CD25^−CD44^lowCD62L^high cells using allophycocyanin (APC)-conjugated anti-CD25 monoclonal antibody (mAb) (clone PC61.5), FITC-conjugated CD62L mAb (clone MEL-14), and PE-Cy5-conjugated CD44 mAb (clone IM7) (all from eBioscience™, San Diego, Calif.). Cells were grown in complete IMDM (Gibco, Carlsbad, Calif.) supplemented with 10% FBS, 100 μg/mL penicillin, 100 μg/mL streptomycin, 2 mM L-glutamine, 10 mM HEPES, and 1 nM sodium pyruvate, and activated on 48-well tissue-culture plates which had been coated with 4 μg anti-CD3 (clone 2C11) for 3 h at 37° C., then washed 3 times with PBS. Cultures were supplemented with 2 μg/mL anti-CD28 (clone 37-51, a kind gift from J. Allison, Sloan-Kettering Cancer Center) and anti-IL-4 ascites (clone 11B11, a kind gift from T. Moran, Mount Sinai School of Medicine, ATCC number HB188) at 1:500. mAbs 2C11 and 37-51 were purified from hybridoma supernatants by BioXCell Company (West Lebanon, N.H.). When cultured with conditioned medium (CM) from BMDC, T cells were grown in 1:1 CM:fresh complete IMDM. […]\nT cells cultured for 48 hours under the indicated conditions were lysed and RNA isolated by TRIzol® extraction (Invitrogen) according to manufacturer's instructions. […] Quantitative real-time, reverse transcription polymerase chain reaction (qPCR) was conducted on an ABI Prism® 7900 instrument (Applied Biosystems, Foster City, Calif.) with primer pairs and probes as follows. […]\nQuantitative PCR was performed using TaqMan® quantitative PCR Master Mix at a concentration of 1× (Applied Biosystems). […] “Fold inductions” were calculated using the ΔΔCt method relative to T cells activated under neutral conditions (No cytokines or CM). […]"}, "[2]": {"tested_on": "Naïve CD4 T-cells", "test": "In vitro T-cell differentiation in DC conditioned medium, IL-17/IL-10 in supernatants by ELISA", "format": "cell-based, C57BL/6J mice", "method": "Bone marrow (BM)-derived GM-CSF DC cultures were grown in RPMI supplemented with GM-CSF and 5% foetal bovine serum (FBS), plus 100 μg/mL penicillin, 100 μg/mL streptomycin, 2 mM L-glutamine, 10 mM HEPES, 1 nM sodium pyruvate, 1×MEM nonessential amino acids, and 2.5 μM β-mercaptoethanol (all from Sigma-Aldrich, St. Louis, Mo.), as previously dcseribed^1. Semi-adherent cells were harvested on ice on day 5 and re-plated immediately in fresh GM-CSF medium at 1×10^6 cells/well in 24-well tissue culture-treated plates. Soluble or phagocytic stimuli were added right away to the plates in the same medium and the cells were centrifuged for 2 min at 2000 rpm. Supernatants (conditioned medium, CM) were collected after 18 hours. LPS (from E. coli, serotype 055:B5, L-2880) was purchased from Sigma-Aldrich. BMDC were treated with various doses of soluble LPS or 2:1 A20 LPS blasts:DC to titrate the LPS such that levels of IL-6 produced by DC in response to these stimuli was similar. Soluble LPS was used at a final concentration of 1 ng/mL. The A20 B-cell line was obtained from the ATCC (TIB-208). A20 LPS blasts were prepared by culturing A20 cells at 1×10^6 cells/mL, 3 mL/well in 6-well tissue culture plates for four days in RPMI medium supplemented with 10% FBS, with 100 μg/mL penicillin, 100 μg/mL streptomycin, 2 mM L-glutamine, 10 mM HEPES, 1 nM sodium pyruvate, plus 25 μg/mL LPS, as previously described in Blander, J. M. and Medzhitov, R. (2004) Science 304(5673):1014. […] Cells were centrifuged, counted, and apoptosis was induced by UV irradiation at 350 mJ. […]\nNaïve CD4 T cells were isolated first by sorting with MACS® CD4^+ beads (Miltenyi Biotech, Auburn, Calif.) according to manufacturer's instructions and then by fluorescence activated cell sorting (FACS) using a MoFlo™, Vantage, or Influx™ cell sorter for CD25^−CD44^lowCD62L^high cells using allophycocyanin (APC)-conjugated anti-CD25 monoclonal antibody (mAb) (clone PC61.5), FITC-conjugated CD62L mAb (clone MEL-14), and PE-Cy5-conjugated CD44 mAb (clone IM7) (all from eBioscience™, San Diego, Calif.). […]"}, "[3]": {"tested_on": "Bone marrow DC", "test": "TGF-β bioassay of DC conditioned medium (MFB-F11 SBE-SEAP reporter cells)", "format": "cell-based, mice", "method": "Analysis of bioactive TGF-β was performed as previously described in Tesseur, I. et al. (2006) BMC Cell Biol 7: 15. MFB-F11 mouse fibroblast cells stably transfected with a reporter plasmid consisting of TGF-β-responsive Smad-binding elements coupled to a secreted alkaline phosphatase reporter gene (SBE-SEAP) were seeded at 3×10^4 cells/well in 96-well flat bottom tissue culture plates and cultured overnight in DMEM supplemented with 10% FBS and penicillin/streptomycin (DMEM/P/S). Cells were washed twice with PBS and incubated in 50 μL serum-free DMEM for 2 hours. Conditioned medium from DC was diluted 1:5 in serum-free DMEM/P/S and 5 μL was added to the MFB-F11 cells. For detection of total TGF-β, diluted conditioned medium was activated by adding 1.5 μL 6M HCl to 150 μL of sample and incubating 10 minutes at room temperature. Neutralization was performed by adding 1.5 μL 6M NaOH. […] SEAP activity was measured using Great EscAPe™ SEAP Reporter System 3 (Clontech, Mountain View, Calif.) according to the manufacturer's protocol with 96-well white/flat bottom plates. Luciferase activity was measured with a FLUOStar Optima reader (BMG Labtech, Durham, N.C.). For each sample, the concentration of biologically active TGF-β was calculated as follows: (luciferase activity of bio-active TGF-β/luciferase activity for total TGF-β)×100. […]"}, "[4]": {"tested_on": "Naïve CD4 T-cells", "test": "CD4 T-cells in DCCM re-plated on anti-CD3 for 48 h with neutralizing mAbs or IL-23, cytokines by ELISA", "format": "cell-based, C57BL/6J mice", "conditions": "re-stimulation for 48 h in the presence of 10 ng/mL IL-23", "text": "as §1, with “PBS.” for “PBS. Cultures were supplemented with 2 μg/mL anti-CD28 (clone 37-51, a kind gift from J. Allison, Sloan-Kettering Cancer Center) and anti-IL-4 ascites (clone 11B11, a kind gift from T. Moran, Mount Sinai School of Medicine, ATCC number HB188) at 1:500. mAbs 2C11 and 37-51 were purified from hybridoma supernatants by BioXCell Company (West Lebanon, N.H.). When cultured with conditioned medium (CM) from BMDC, T cells were grown in 1:1 CM:fresh complete IMDM.”\nNext, naïve CD4 T-cells were isolated from C57BL/6J mice and activated with 4 μg anti-CD3 and 2 μg/mL anti-CD28 plus anti-IL-4 with CM from C57BL/6J (WT) BMDC that had phagocytosed apoptotic LPS B cell-blasts. […] Cytokines were quantified in supernatants by ELISA. […]"}}, "data": [{"molecule": "TGF-β", "values": [{"measurement": "Foxp3 mRNA induction", "setting": "[1]; quantitative RT-PCR", "value": "highest induction"}]}, {"molecule": "curdlan", "values": [{"measurement": "induction of IL-17+ CD4 T-cells", "setting": "[2]; DC derived from MyD88−/−Trif−/− and Tlr4−/− mice, TGF-β concomitantly present", "value": "able to direct induction of IL-17^+ CD4 T-cells"}]}, {"molecule": "lipopolysaccharide [free LPS]", "values": [{"measurement": "production of biologically active TGF-β by DC", "setting": "[3]", "value": "did not"}, {"measurement": "IL-17 secreting CD4 T-cells", "setting": "[2]; three days in CM, with IFN-γ neutralizing antibody", "value": "some induction of IL-17 secreting (IL-17^+) CD4 T-cells"}]}, {"molecule": "B1", "values": [{"measurement": "expression of TH1 lineage-specific transcription factor T-bet", "setting": "[1]; qPCR after 48 hours of culture", "value": "expressed the TH1 lineage-specific transcription factor"}]}, {"molecule": "B2", "values": [{"measurement": "levels of IL-17 produced", "setting": "[4]", "value": "only slightly increased the levels of IL-17 produced"}, {"measurement": "total levels of IL-10 produced", "setting": "[4]", "value": "markedly impaired"}]}]}
